Measurements taken from PMC9374667 (Communications Biology, 2022).
Values joined by “and” are separate entries in the source; they are usually repeats but may differ in a detail not shown here. Equal entries are not always repeated.

Columns and labels:
[1] = In vitro dissolution studies: dynamic solubility in buffers and simulated biological fluids; type: physicochemical; set-up: BBR dissolved in CMC-Na (Figure S7a) / Ibu dissolved in CMC-Na (Figure S7b): unit not given here; details: mean; for solubility at 0.5 h / solubility at 1 h / solubility at 2 h / solubility at 24 h: 37 °C
Description: (§1) Solubilities were determined by adding excess sample to 30 mL different mediums, such as HCl solution, acetate buffer, phosphate buffer, SGF, FaSSIF and FeSSIF. The configuration of various buffer solutions is shown in Supplementary Table 2. After being shaken at 400 rpm at 37 °C for 0.5, 1, 2, and 24 h, 0.3 mL of suspension was sampled and centrifuged at 14,000 rpm for 8 min to isolate mother liquor, and then analyzed by HPLC after dilution. All samples were analyzed in triplicate.

[2] = pH of the solution after 24 hours of the dissolution test; type: physicochemical
Description: as §1, with “triplicate. […]” for “triplicate.”
into a 1000 mL flask followed by addition of about 800 mL of deionized water. The mixture is stirred until all solids are dissolved.
Add about 100 mL of 0.1 N HCl, check pH value with a pH meter and adjust the pH to 2.0 with HCl (1 N) or NaOH (1 N). Then dilute to the volume with deionized water.
* 1N sodium hydroxide: Weigh 8 g NaOH in a 200 mL plastic volumetric flask, add deionized water to volume and mix well. […]
phosphate and 3.093 g sodium chloride in a 500 mL volumetric flask, add about 0.450 L deionized water, and adjust the pH to 6.5 with 1N sodium hydroxide or 1 N hydrochloric acid. Make up to volume (0.5 […]
Step 2: Place and dissolve 1.120 g FaSSIF/FeSSIF/FaSSGF instant powder with 0.250 L of buffer (from step 1) in a 500 mL volumetric flask, then add buffer (from step 1) to volume, and mix well. […]
g sodium chloride in a 500 mL volumetric flask, add about 0.450 L deionized water, and adjust the pH to 5.0 with 1 N sodium hydroxide or 1 N hydrochloric acid. Make up to volume (500 mL) with
Step 2: Place and dissolve 5.600 g FaSSIF/FeSSIF/FaSSGF instant […]
0.750 L deionized water. Make up to volume (1000 mL) with deionized water and placed overnight.
(1 picture or pasted object on this page, not shown here)

db/db mice = assay: Fat depots weight (BAT, iWAT, eWAT; percentage of body weight); type: in vivo; set-up: key to BAT fat depot weight (Figure 4c): % of body weight (fat depot weight / body weight * 100%); details: BBR 150mg/kg; db/db mice; individual mice 1-10
Description: The lean wild type control and the db/db control mice were given equal vehicle volume (0.5% CMC-Na solution). All mice were monitored for food intake, body weight, and fasting blood glucose during the 35-day trial. Glucose tolerance test (GTT) and insulin resistance test (ITT) were performed at 4 and 5 weeks of treatment, respectively. Metabolic analysis was performed at 5 weeks of treatment. At the end of the study, blood samples were taken through the retroorbital venous sinus of mice, fat depots (brown fat, inguinal subcutaneous fat, epididymal fat, perirenal fat and mesenteric fat depot) were dissected, weighed, and immediately frozen in liquid nitrogen and stored at −80 °C until required. Weight of fat depots are expressed in percentage (fat depots weight /bodyweight * 100%).

[3] = FaSSIF-V1 (fasted state simulated intestinal fluid), thermodynamic from solid, FaSSIF-V1 (pH 6.5)
[4] = FaSSIF-V1 (fasted state simulated intestinal fluid), FaSSIF-V1 (pH 6.5)
[5] = FeSSIF-V1 (fed state simulated intestinal fluid), thermodynamic from solid, FeSSIF-V1 (pH 5.0)
[6] = SGF (simulated gastric fluid), simulated gastric fluid, thermodynamic from solid, SGF (pH 2.0)
[7] = simulated gastric fluid, thermodynamic from solid, HCl solution (pH 1.0)

COc1ccc2cc3[n+](cc2c1OC)CCc1cc2c(cc1-3)OCO2 [BBR, Berberine chloride dihydrate]
solubility at 0.5 h ([1]; Acetate buffer (pH 4.5)): 2080 µg/mL
solubility at 1 h ([1]; Acetate buffer (pH 4.5)): 2070 µg/mL
solubility at 2 h ([1]; Acetate buffer (pH 4.5)): 1540 µg/mL
solubility at 24 h ([1]; Acetate buffer (pH 4.5)): 1540 µg/mL
BBR dissolved in CMC-Na (Figure S7a) ([1]; time 0.5): 1.991
BBR dissolved in CMC-Na (Figure S7a) ([1]; time 1): 2.188
BBR dissolved in CMC-Na (Figure S7a) ([1]; time 2): 2.102
BBR dissolved in CMC-Na (Figure S7a) ([1]; time 24): 2.4551
solubility at 0.5 h [1, 3]: 151 µg/mL
solubility at 24 h [1, 3]: 64.1 µg/mL
solubility at 1 h [1, 4]: 126 µg/mL
solubility at 2 h [1, 4]: 87.2 µg/mL
solubility at 0.5 h [1, 5]: 137 µg/mL
solubility at 2 h [1, 5]: 73.3 µg/mL
solubility at 24 h [1, 5]: 63.1 µg/mL
solubility at 1 h ([1]; FeSSIF-V1 (fed state simulated intestinal fluid), FeSSIF-V1 (pH 5.0)): 107 µg/mL
solubility at 2 h ([1]; HCl solution (pH 1.0)): 106 µg/mL
solubility at 24 h ([1]; HCl solution (pH 1.0)): 81.1 µg/mL
solubility at 0.5 h ([1]; Phosphate buffer (pH 6.8)): 2290 µg/mL
solubility at 1 h ([1]; Phosphate buffer (pH 6.8)): 2380 µg/mL
solubility at 2 h ([1]; Phosphate buffer (pH 6.8)): 1790 µg/mL
solubility at 24 h ([1]; Phosphate buffer (pH 6.8)): 1950 µg/mL
solubility at 0.5 h [1, 6]: 172 µg/mL
solubility at 1 h [1, 6]: 175 µg/mL
solubility at 2 h [1, 6]: 140 µg/mL
solubility at 24 h ([1]; SGF (simulated gastric fluid), SGF (pH 2.0)): 110 µg/mL
solubility at 0.5 h [1, 7]: 137 µg/mL
solubility at 1 h [1, 7]: 146 µg/mL
pH of the solution after 24 hours ([2]; Acetate buffer, blank vehicle 4.54): 4.57
pH of the solution after 24 hours ([2]; CMC-Na, blank vehicle 6.51): 6.20
pH of the solution after 24 hours ([2]; FaSSIF-v1, blank vehicle 6.51): 6.54
pH of the solution after 24 hours ([2]; FeSSIF-v1, blank vehicle 5.04): 5.03
pH of the solution after 24 hours ([2]; HCl solution, blank vehicle 1.08): 1.05
pH of the solution after 24 hours ([2]; Phosphate buffer, blank vehicle 6.84): 6.90
pH of the solution after 24 hours ([2]; SGF, blank vehicle 2.03): 2.07
BAT fat depot weight (Figure 4c) (db/db mice): 2.4015 and 0.6109 and 1.4913 and 1.4054 and 1.8804 and 2.4038 and 1.1343 and 1.618 and 1.1772 and 2.0775
